Converted amounts (≈) assume the structure as drawn. Where a SMILES comes first, the peptide text is derived from it. [ ]: non-standard residue; d: D form. The star is where a group is joined. d(aIle) = CC[C@H](C)[C@@H](N)C(=O)O; dDab = NCC[C@@H](N)C(=O)O; Octanoyl = CCCCCCCC(=O)*; Dab = NCC[C@H](N)C(=O)O; AEEA = NCCOCCOCC(=O)O Some results are limits rather than exact numbers.

Series [1] relates to N. gonorrhoeae FA1090. Put plainly: Time-to-kill assay. Conditions: FA1090, 50 μg mL^−1 of the AMP, GW medium; n = 3. In kind it is cell-based, Neisseria gonorrhoeae. The method, then:
(§1) Fig. 4. […] (C) Time-to-kill curve analysis with ADCs protocol. N. gonorrhoeae were grown for 24 h prior to harvesting supernatant with or without IgAP, wild-type, and ΔigAP, respectively. Supernatant was dialyzed into fresh media prior to inoculating with respective N. gonorrhoeae strains. After 3 h growth, ADCs or peptides were added, and CFU/mL was calculated every 30 min for 4 h. […] All data shown are the mean ± SD of CFU/ml (n = 3).
(§2) 37°C, in 5% CO2 then 10 μl aliquots plated onto GCB agar. The MIC was defined as the lowest concentration of an antimicrobial that prevented bacterial growth.
(§3) Determination of N. gonorrhoeae resistance to Oct-TriA1
(§4) Single colonies of N. gonorrhoeae FA1090 were inoculated into 2 mL of FB media supplemented with 1% Vitox (Oxoid) and grown overnight. After 24 hours, 240 µl of a 1/ 5,000 dilution of FA1090 in 2x FB was added to a 48-well plate containing 2-fold dilutions of either Oct-TriA1-c (final concentration, 12.5 µg/ml to 0.2 µg/ml) or ciprofloxacin (final concentration, 16.4 to 0.001 µg/ml) in a total volume of 480
(§5) µl. Plates were incubated at 37 °C, 5% CO2 with shaking (180 rpm). After 24 hours, ODA600 of each well […]
(§6) Peptide concentrations for ADCs were calculated from the antibody concentration, the drug-to-antibody ratio (DAR), and the peptide molecular weight using the following formula: […]

For series [2], the system named is N. gonorrhoeae G97687 (MDR strain). Briefly: Time-to-kill assay. The class given is cell-based, Neisseria gonorrhoeae. The following applies: G97687, peptide 50 μg mL^−1, GW medium; n = 3. The method, then: as §1, §2, §3, §4, §5, §6
Series [3] deals with N. gonorrhoeae FA1090. Put plainly: microbe, parasite or virus in culture. Conditions: FA1090, FB. How it is done: as §2, §3, §4, §5
to fresh media containing all concentrations of antimicrobials for a total of 35 days. […]

For series [4], the system named is HK-2 cells. Put plainly: MTT cell viability. In kind it is cell-based, human. Conditions: n = 3. How it is done:
HK-2 cells (CRL-2190™, Americab Type Culutre Collection (ATCC)), a proximal renal tubule cell(7), and End1/E6E7 (CRL-2615™, ATCC) upper cervical epithelial cells(8) were cultured in Keratinocyte Serum Free Medium (Invitrogen, Life Technologies Ltd.) with human recombinant EGF (5 ng ml-1) and bovine pituitary extract (0.05 mg ml−1) at 37°C in 5% CO2. […]
Cell viability was assessed by 3-(4,5-dimethylthiazol-2-yl)-2,5-diphenyl-2H-tetrazolium bromide (MTT) assay(9); 200 µl fresh cell media and 250 µg of MTT was added to cells. Plates were Incubated at 37 °C, 5% CO2 for 3 hr then 200 µl of DMSO was added to wells with 25 µl glycine buffer (0.1 M glycine, 0.1 M NaCl pH 10.5) and shaken at 1000 r.p.m. for 10 min. Absorbance was read at OD570 nm. Cell viability was calculated as (sample absorbance – cell free blank/media control absorbance) x100.

Series [5] has as its system N. gonorrhoeae G97687 (MDR isolate). The following applies: G97687, MDR isolate resistant to ESCs and azithromycin; microdilution in FB, 24 hr, 37°C, 5% CO2. The method, then:
(§7) Determination of Oct-TriA1 Minimum Inhibitory Concentration (MIC)
(§8) N. gonorrhoeae was resuspended in PBS to an ODA600 1.0, and ̴5 × 10^4 CFU added to wells of a microdilution plate containing dilutions of antimicrobials in FB. Plates were incubated for 24 hr at […]
(§9) 37°C, in 5% CO2 then 10 μl aliquots plated onto GCB agar. The MIC was defined as the lowest concentration of an antimicrobial that prevented bacterial growth. […]
(§10) Peptide concentration in ADC preparations
(§11) Peptide concentrations for ADCs were calculated from the antibody concentration, the drug-to-antibody ratio (DAR), and the peptide molecular weight using the following formula:
(§12) Conc. peptide (µg/mL) = Conc. ADC (µg/mL) × DAR x MWpeptide (Da) […]
(§13) Where Conc. ADC is the ADC/ mAb concentration, MWADC is the mAb molecular weight (150 kDa), MWpeptide is the peptide molecular weight and DAR is the average number of peptides per conjugate.
(§14) This formula was used to convert ADC concentrations to peptide concentrations for all assays. […]
Background: In broth dilution the organism is exposed to a series of concentrations in liquid medium.

Series [6] relates to N. gonorrhoeae FA1090ΔmtrE. The following applies: microdilution in FB, ~5 × 10^4 CFU, 24 hr, 37°C, 5% CO2. How it is done:
(§15) columns (ThermoFisher scientific). Activated mAb was added to 0.9 mg of Oct-TriA1 analogues (synthesised by ISCA Biochemicals, UK) and incubated at room temperature for 60 min. ADCs were dialysed using slide-A-Lyzer cassette (20K MWCO, ThermoFisher scientific) into PBS overnight at 4 °C […]
(§16) MALDI-TOF MS analysis for determination of intact mass mAbs or ADCs with a concentration of 1 mg/mL were acidified with 1% trifluoroacetic acid and mixed with Super DHB matrix, 1 μl was spotted onto an MTP Anchorchip 600/384. For every mAb, three sample spots were prepared from the same solution using three protocols advised by the manufacturer. MALDI-TOF measurements were performed on a Microflex LRF mass spectrometer, equipped with a 60Hz nitrogen laser at 337nm. Number of peptides conjugated was calculated using the MALDI-TOF molecular weights (MW) [MW = M+] of each ADC, the unconjugated antibody (mAb), and the molecular weights of Oct-TriA1 analogues using the following equation.
(§17) Number of peptides = MW ADC − MW mAb […]
as §7, §8, §9, §10, §11, §12, §13, §14

The test system of series [7] is N. gonorrhoeae WHO P. The following applies: microdilution in FB, ~5 × 10^4 CFU, 24 hr, 37°C, 5% CO2. The method, then:
as §15, §16, §17, §7, §8, §9, §10, §11, §12, §13, §14

Series [8] has as its system human erythrocytes. Put plainly: Hemolysis of human erythrocytes. The class given is cell-based. The method, then:
For hemolysis, whole human blood (1 ml; K2EDTA; Cambridge Bioscience) was washed in PBS then 0.5% added to an equal volume of peptides or ADCs in 96-well V-bottomed polypropylene plates and incubated at 37°C for 1 hr. Cells were pelleted at 1,000 × g for 10 min and the absorbance at OD415 measured. Positive (melittin, 2.5 µM, Merck Life Science) and negative (PBS) controls were normalised as 100 and 0% hemolysis, respectively. […]

Usually HC50 stands for the concentration giving 50% haemolysis. Turning to `CCCCCCCC(=O)N[C@@H](C(=O)N[C@H](CCN)C(=O)NCC(=O)N[C@H](CO)C(=O)N[C@H](Cc1c[nH]c2ccccc12)C(=O)N[C@@H](CO)C(=O)N[C@@H](CCN)C(=O)N[C@H](CCN)C(=O)N[C@@H](Cc1ccccc1)C(=O)N[C@@H](CCC(=O)O)C(=O)N[C@H](C(=O)N[C@@H](C(=O)N[C@@H](C)C(=O)NCCOCCOCC(=O)N[C@@H](CC(C)C)C(=O)N1CCC[C@H]1C(=O)N[C@@H](CCCNC(=N)N)C(=O)N1CCC[C@H]1C(=O)N1CCC[C@H]1C(=O)O)[C@@H](C)CC)C(C)C)C(C)C` [Oct-TriA1-c] (Octanoyl-[dV][dDab]G[dS][dW]S[Dab][dDab]FEV[d(aIle)]A[AEEA]LPRPP-OH), the “time to undetectable survival” value in series [1] came out at 60 min. The “time to no survival” value in series [2] is reported as 180 min. Besides, the “MIC at start of resistance evolution” value in series [3] (24 h, MIC = less than 50% growth (OD600) vs no antimicrobial) worked out at 1.56 µg/mL. The “MIC after 35 d of resistance evolution” value in series [3] (serial passage 35 d, MIC = less than 50% growth (OD600)) was 12.5 µg/mL. Besides, the “MTT (EC50) 4 h” value in series [4] (MTT reduction OD570, 4 h) came to 101.98 µg/mL. For the same compound, in series [4] (MTT reduction OD570, 24 h), the “MTT (EC50) 24 h” value came out at 78.78 µg/mL. The “MTT (EC50) 48 h” value in series [4] (MTT reduction OD570, 48 h) is 61.09 µg/mL. Also, the MIC in series [5] came out at 1.56 µg/mL (≈ 0.701 µM); in series [6], 0.78 µg/mL (≈ 0.35 µM); in series [7] it was 3.13 µg/mL (≈ 1.41 µM). The “fold reduced hemolytic activity” value in series [8] (compared with unmodified Oct-TriA1) was greater than 25 fold. In series [8] (concentration of peptide or ADC that lyses 50% of erythrocytes, washed human blood 0.5%, 37°C, 1 hr, OD415, melittin 2.5 µM = 100%, PBS = 0%, n = 3), the “Hemolysis (HC50)” value is reported as >1,000 μg mL^−1. The compound further came in with an HC50 in series [8] (human erythrocytes, 37°C, 1 hr, OD415) greater than 1 mg/mL.

Values taken from publication PMC13439108, “An antibody–drug conjugate active against antibiotic-resistant Neisseria gonorrhoeae” (Proceedings of the National Academy of Sciences of the …, 2026).
